The subject of the first assay is MCH receptors. Kind of assay: MCH receptor activity class (method not given). The settings on record: MCH receptor activity class 1-3 (percent of control at 10^-7 M or IC50).
Turning to `CN(C)c1ccnc(N[C@H]2CC[C@@H](CNC(=O)Nc3cc(Cl)cc(Cl)c3)CC2)n1` [compound 2439], the class is on record as 2 (Class 2: The value of percent of control at 10^−7 M was from 40% to 60% or the value of IC′50 was from 50 nM to 200 nM.).

Regarding `Cc1ccc(NC(=S)N[C@H]2CC[C@@H](Nc3nccc(N(C)C)n3)CC2)c(Br)c1` [compound 2323], the class is on record as 3 (Class 3 The value of percent of control at 10^−7 M was more than 60% or the value of IC50 was more than 200 nM.).

For the compound `CN(C)c1ccnc(N[C@H]2CC[C@@H](NC(=S)Nc3c(Cl)cc(Cl)cc3Cl)CC2)n1` [compound 2319], the class is given as 3 (Class 3 The value of percent of control at 10^−7 M was more than 60% or the value of IC50 was more than 200 nM.). In the case of `CN(C)c1nc(N[C@H]2CC[C@@H](CNC(=O)Nc3ccc(C#N)cc3)CC2)nc2c1CCCC2` [compound 2480], the class is 3 (Class 3 The value of percent of control at 10^−7 M was more than 60% or the value of IC50 was more than 200 nM.). The same measure, in the same setting: for `COc1cccc(CNC(=S)N[C@H]2CC[C@@H](Nc3cc(N(C)C)c4ccccc4n3)CC2)c1OC` [compound 2288] the value was 3 (Class 3 The value of percent of control at 10^−7 M was more than 60% or the value of IC50 was more than 200 nM.).

Staying with this assay, now noted: MCH receptor; class by percent of control at 10^-7 M or IC50.
In the case of `CN(C)c1cc(N[C@H]2CC[C@@H](NC(=O)c3ccc(I)cc3)CC2)nc2ccccc12` [compound 41], the class was 3 (Class 3 The value of percent of control at 10^−7 M was more than 60% or the value of IC50 was more than 200 nM.). Same read-out and setting: for `CN(C)c1ccc(NC(=S)N[C@H]2CC[C@@H](Nc3nc4c(c(N(C)C)n3)CCCC4)CC2)cc1` [compound 2072] the value was 3 (Class 3 The value of percent of control at 10^−7 M was more than 60% or the value of IC50 was more than 200 nM.); for `CN(C)c1cc(N[C@H]2CC[C@@H](NC(=O)Cc3ccc(F)cc3)CC2)nc2ccccc12` [compound 68], 3 (Class 3 The value of percent of control at 10^−7 M was more than 60% or the value of IC50 was more than 200 nM.). On the same count and under the same terms, the same measure for `CN(C)c1nc(N[C@H]2CC[C@@H](NC(=S)Nc3ccc([N+](=O)[O-])cc3Cl)CC2)nc2c1CCCC2` [compound 1975]: 3 (Class 3 The value of percent of control at 10^−7 M was more than 60% or the value of IC50 was more than 200 nM.); for `CC(=O)c1ccc(NC(=S)N[C@H]2CC[C@@H](Nc3nc4c(c(N(C)C)n3)CCCC4)CC2)cc1` [compound 1926]: 3 (Class 3 The value of percent of control at 10^−7 M was more than 60% or the value of IC50 was more than 200 nM.).

Consider `CCOc1ccccc1C(=O)NC[C@H]1CC[C@@H](Nc2cc(N(C)C)c3ccccc3n2)CC1` [compound 199], for which the class is given as 3 (Class 3 The value of percent of control at 10^−7 M was more than 60% or the value of IC50 was more than 200 nM.). Still for that read-out and setting: the same measure for `Cc1cc(C(=O)NC[C@H]2CC[C@@H](Nc3cc(N(C)C)c4ccccc4n3)CC2)ccc1Br` [compound 184]: 3 (Class 3 The value of percent of control at 10^−7 M was more than 60% or the value of IC50 was more than 200 nM.); for `CN(C)c1cc(N[C@H]2CC[C@@H](CNC(=O)c3ccc(Cl)cc3)CC2)nc2ccccc12` [compound 152]: 3 (Class 3 The value of percent of control at 10^−7 M was more than 60% or the value of IC50 was more than 200 nM.).

Staying with this assay, now noted: activity class 1-3: percent of control at 10^-7 M or IC50.
With `CN(C)c1nc(N[C@H]2CC[C@@H](NC(=O)Nc3ccccc3C(F)(F)F)CC2)nc2c1CCCC2` [compound 1666], the class was 3 (Class 3 The value of percent of control at 10^−7 M was more than 60% or the value of IC50 was more than 200 nM.). In the case of `CCc1cccc(CC)c1NC(=O)N[C@H]1CC[C@@H](Nc2nc3c(c(N(C)C)n2)CCCC3)CC1` [compound 1672], the class is on record as 1 (Class 1: The value of percent of control at 10^−7 M was less than 40% or the value of IC50 was less than 50 nM.).

Staying with this assay, now noted: activity class per percent of control at 10^-7 M or IC50.
In the case of `CN(C)c1nc(N[C@H]2CC[C@@H](NC(=O)c3ccccc3Oc3ccccc3)CC2)nc2c1CCCC2` [compound 1030], the class is 1 (Class 1: The value of percent of control at 10^−7 M was less than 40% or the value of IC50 was less than 50 nM.). `COc1cc(CC(=O)N[C@H]2CC[C@@H](Nc3nc4c(c(N(C)C)n3)CCCC4)CC2)ccc1OCc1ccccc1` [compound 1012]: the class is recorded as 3 (Class 3 The value of percent of control at 10^−7 M was more than 60% or the value of IC50 was more than 200 nM.).

`CN(C)c1nc(N[C@H]2CC[C@@H](NC(=O)c3cc([N+](=O)[O-])cn3C)CC2)nc2c1CCCC2` [compound 1044]: the class is reported as 1 (Class 1: The value of percent of control at 10^−7 M was less than 40% or the value of IC50 was less than 50 nM.).

The assay is the same for the next values; noted with them: class 1-3 by percent of control at 10^-7 M or IC50.
On to `CN(C)c1nc(N[C@H]2CC[C@@H](NC(=O)c3cc(F)c(F)c(F)c3F)CC2)nc2c1CCCC2` [compound 564], for which the class is listed as 3 (Class 3 The value of percent of control at 10^−7 M was more than 60% or the value of IC50 was more than 200 nM.). The same measure, in the same setting: the same measure for `CN(C)c1nc(N[C@H]2CC[C@@H](NC(=O)c3ccc([N+](=O)[O-])cc3Cl)CC2)nc2c1CCCC2` [compound 538]: 3 (Class 3 The value of percent of control at 10^−7 M was more than 60% or the value of IC50 was more than 200 nM.).

The assay is the same for the next values; noted with them: class by percent of control at 10^-7 M or IC50.
For the compound `CN(C)c1nc(N[C@H]2CC[C@@H](CNCc3ccccc3OC(F)(F)F)CC2)nc2c1CCCC2` [compound 1410], the class is on record as 3 (Class 3 The value of percent of control at 10^−7 M was more than 60% or the value of IC50 was more than 200 nM.). In the case of `CN(C)c1nc(N[C@H]2CC[C@@H](CNC(=O)c3cc(C(F)(F)F)ccc3F)CC2)nc2c1CCCC2` [compound 627], the class is 3 (Class 3 The value of percent of control at 10^−7 M was more than 60% or the value of IC50 was more than 200 nM.).

Regarding `CN(C)c1nc(N[C@H]2CC[C@@H](NC(=O)Nc3cccc(F)c3)CC2)nc2c1CCCC2` [compound 1827], the class is recorded as 3 (Class 3 The value of percent of control at 10^−7 M was more than 60% or the value of IC50 was more than 200 nM.).

Consider `CN(C)c1cc(N[C@H]2CC[C@@H](NCCOc3ccccc3Cl)CC2)nc2ccccc12` [compound 1449], for which the class is recorded as 3 (Class 3 The value of percent of control at 10^−7 M was more than 60% or the value of IC50 was more than 200 nM.). With `COc1cc(F)c(CNC[C@H]2CC[C@@H](Nc3nc4c(c(N(C)C)n3)CCCC4)CC2)cc1OC` [compound 1442], the class is given as 3 (Class 3 The value of percent of control at 10^−7 M was more than 60% or the value of IC50 was more than 200 nM.).

On to `CN(C)c1nc(N[C@H]2CC[C@@H](NC(=O)c3ccc(I)o3)CC2)nc2c1CCCC2` [compound 956], for which the class is reported as 1 (Class 1: The value of percent of control at 10^−7 M was less than 40% or the value of IC50 was less than 50 nM.).

`CCOc1cc(CN[C@H]2CC[C@@H](Nc3nccc(N(C)C)n3)CC2)ccc1OC` [compound 1217]: the class is 3 (Class 3 The value of percent of control at 10^−7 M was more than 60% or the value of IC50 was more than 200 nM.).

In the case of `CN(C)c1nc(N[C@H]2CC[C@@H](CNCc3ccc(O)cc3)CC2)nc2c1CCCC2` [compound 1396], the class was 3 (Class 3 The value of percent of control at 10^−7 M was more than 60% or the value of IC50 was more than 200 nM.). Same read-out and setting: the same measure for `CN(C)c1ccnc(N[C@H]2CC[C@@H](NC(=O)C(c3ccc(Cl)cc3)c3ccc(Cl)cc3)CC2)n1` [compound 825]: 3 (Class 3 The value of percent of control at 10^−7 M was more than 60% or the value of IC50 was more than 200 nM.); for `CN(C)c1ccnc(N[C@H]2CC[C@@H](NC(=O)c3cccc(C(F)(F)F)c3F)CC2)n1` [compound 282]: 3 (Class 3 The value of percent of control at 10^−7 M was more than 60% or the value of IC50 was more than 200 nM.). Still for that read-out and setting: the same measure for `Cc1cc(C(=O)N[C@H]2CC[C@@H](Nc3cc(N(C)C)c4ccccc4n3)CC2)ccc1[N+](=O)[O-]` [compound 689, N-(cis-4-{[4-(dimethylamino)quinolin-2-yl]amino}cyclohexyl)-3-methyl-4-nitrobenzamide]: 1 (Class 1: The value of percent of control at 10^−7 M was less than 40% or the value of IC50 was less than 50 nM.). Same read-out and setting: the same measure for `COc1ccc2[nH]c(C)c(CC(=O)N[C@H]3CC[C@@H](Nc4nc5c(c(N(C)C)n4)CCCC5)CC3)c2c1` [compound 958]: 2 (Class 2: The value of percent of control at 10^−7 M was from 40% to 60% or the value of IC′50 was from 50 nM to 200 nM.); for `CN(C)c1nc(N[C@H]2CC[C@@H](NC(=O)Nc3cccc(Cl)c3Cl)CC2)nc2c1CCCC2` [compound 1795]: 2 (Class 2: The value of percent of control at 10^−7 M was from 40% to 60% or the value of IC′50 was from 50 nM to 200 nM.); for `CN(C)c1cc(N[C@H]2CC[C@@H](NC(=O)c3ccc(Br)s3)CC2)nc2ccccc12` [compound 673]: 2 (Class 2: The value of percent of control at 10^−7 M was from 40% to 60% or the value of IC′50 was from 50 nM to 200 nM.). Consider `CN(C)c1cc(N[C@H]2CC[C@@H](NC(=O)CC(c3ccccc3)c3ccccc3)CC2)nc2ccccc12` [compound 756], for which the class is reported as 3 (Class 3 The value of percent of control at 10^−7 M was more than 60% or the value of IC50 was more than 200 nM.). On to `COc1cccc(OC)c1CNC[C@H]1CC[C@@H](Nc2nc3c(c(N(C)C)n2)CCCC3)CC1` [compound 1364], for which the class is 1 (Class 1: The value of percent of control at 10^−7 M was less than 40% or the value of IC50 was less than 50 nM.).

The assay is the same for the next values; noted with them: class by percent of control at 10^−7 M or IC50.
As for `Cc1cnc(N[C@H]2CC[C@@H](NC(=O)c3cccc(C#N)c3)CC2)nc1N(C)C` [compound 2908, 3-cyano-N-(cis-4-{[4-(dimethylamino)-5-methylpyrimidin-2-yl]amino}cyclohexyl)benzamide], the class was 1 (Class 1: The value of percent of control at 10^−7 M was less than 40% or the value of IC50 was less than 50 nM.).

In the case of `Cc1cc(N(C)C)nc(N[C@H]2CC[C@@H](NC(=O)c3ccc(Cl)c(Cl)c3)CC2)n1` [compound 2994, 3,4-dichloro-N-(cis-4-{[4-(dimethylamino)-6-methylpyrimidin-2-yl]amino}cyclohexyl)benzamide], the class is 1 (Class 1: The value of percent of control at 10^−7 M was less than 40% or the value of IC50 was less than 50 nM.).

(Values after patent US20050197350A1, “Novel quinoline, tetrahydroquinazoline, and pyrimidine derivatives and methods of treatment related to the use thereof” (TAISHO PHARMACEUTICAL CO., LTD., priority 2003, published 2005).)
